The experiment is described as follows: Cytotoxicity against human HCT116 cells measured after 72 hrs by MTT assay. The format is functional, cell-based. The note with it: HCT-116, 72 h.

In turn, `C=C1/C=C(\C)[C@](C)(O)C[C@H](O)CC(=O)[C@H](O)[C@@H](O)[C@H](C)C[C@H](C)OC(=O)/C(C)=C/CC/C=C/C(O)C(O)C[C@H](C)C1` (some centres not stated) displayed an IC50 of 9.8 µM.

`C=C1/C=C(\C)[C@@H](C)[C@@H](O)CC(=O)[C@@H](C)CC(=O)C[C@H]2CC[C@@H](O2)[C@@H](/C=C/C=C(\C)[C@@H](O)C(=C)CCC)OC(=O)C[C@@H]2O[C@H](C[C@H]2C)[C@H](O)C1` showed a half-maximal inhibitory concentration (IC50) of 10.3 µM. This IC50 and that of the molecule before are within 1.5-fold of each other.

As a reminder, the IC50 is the concentration that inhibits the measured activity by half.

(Values after ChEMBL document CHEMBL3861978, “Dinoflagellate-Related Amphidinolides from the Brazilian Octocoral Stragulum bicolor” (J Nat Prod, 2016).)
